Patent publication US20130190345A1, “MATRINIC ACID/MATRINE DERIVATIVES AND PREPARATION METHODS AND USES THEREOF” (priority 2010, published 2013)

System: Hsc70
Test: Detection of Hsc70 gene expression level upon action of compound on 2.2.15 cells (real-time fluorescent quantified PCR)
Format: cell-based
Parameters: Hsc70 mRNA / Hsc70 down-regulation rate (%): unit not given here
Conditions: 2.2.15 cells; for Hsc70 inhibition rate (down-regulation of Hsc70 expression activity, expressed in relative OMT ratio): relative to OMT (= 1); for Hsc70 mRNA: down-regulation of liver cell Hsc70 gene
Procedure: 2.2.15 cells (purchased from Vertex Pharmaceutical Co., USA) in a number of 1×10^6 were inocubated to 6-well plate, cultured in a culture medium containing 10% fetal calf serum for 24 hr, the original culture medium was discarded, replaced with a culutre medium containing 400 μg/ml OMTR, which was used as control. Compounds were firstly dissolved in MEM to form 20 mg/ml mother liquid, which was diluted with culture medium when used and then applied to cells. The compounds of Examples 1-114 were separately used for treatment for 12, 24, 36 hr, then cells were harvested for extraction of RNA and DNA, then the changes of Hsc70 mRNA and HBV DNA were detected by real-time fluorescent quantified PCR.

Compound	Hsc70 inhibition rate (down-regulation of Hsc70 expression activity, expressed in relative OMT ratio)	Hsc70 mRNA
O=C(O)CCCC1C2CCCN3CCCC(CN1C(=O)CCl)C23 (stereo not shown) [DM-104, N-chloroacetyl matrinic acid]	−7	–
O=C1C(OCc2ccccc2)C(OCc2ccccc2)CC2C3CCCN4CCCC(CN12)C34 (stereo not shown) [Compound 9b, 13,14-dibenzyloxy matrine]	–	45.4 ± 0.11
O=C(O)CCCC1NCC2CCC[N+]3([O-])CCCC1C23 (stereo not shown) [DM-1001, N-oxidized matrinic acid]	0.92	–
N-oxidized kurarinol [DM-2001]	−0.42	–
N,N-dimethyl oxymatrinic acid [DM-1111]	−0.25	–
Cc1cccc(OCC(=O)N2CC3CCCN4CCCC(C34)C2CCCC(=O)O)c1 (stereo not shown) [DM-104a, N-(2-m-methylphenoxy)acetyl matrinic acid]	−2.98	–
O=C(O)CCCC1C2CCCN3CCCC(CN1Cc1ccccc1)C23 (stereo not shown) [DM-108, N-benzylmatrinic acid]	1.25	–
O=C1C=CCC2C3CCC[N+]4([O-])CCCC(CN12)C34 (stereo not shown) [Compound 4, oxidized sophocarpine]	–	15.3 ± 0.21
Cc1cccc(OC(C)C(=O)N2CC3CCCN4CCCC(C34)C2CCCC(=O)O)c1 (stereo not shown) [DM-106, N-(2-m-methylphenoxy)propionylmatrinic acid]	1.67	–
O=C1CCC[C@@H]2[C@H]3CCCN4CCC[C@@H](CN12)[C@@H]34 [Compound 2, reference compound]	–	52.4 ± 0.17
CC(=O)OC1CC2C3CCCN4CCCC(CN2C(=O)C1O)C34 (stereo not shown) [Compound 9e, 14-hydroxyl-13-acetyloxy matrine]	–	37.1 ± 0.16
O=CN1CC2CCCN3CCCC(C1CCCC(=O)O)C23 (stereo not shown) [DM-106a, N-formylmatrinic acid]	−54	–
O=C(O)CCCC1C2CCCN3CCCC(CN1CC1CC1)C23 (stereo not shown) [DM-115, N-cyclopropylmethyl matrinic acid]	−33	–
O=C1CC(OCc2ccccc2)CC2C3CCCN4CCCC(CN12)C34 (stereo not shown) [Compound 6c, 13-benzyloxy matrine]	–	24.7 ± 0.10
CNC1CC(=O)N2C[C@@H]3CCCN4CCC[C@@H]([C@H]34)[C@H]2C1 (stereo partly shown) [Compound 7b, 13-methylaminomatrine]	–	40.1 ± 0.09
O=C1CC(C[N+](=O)[O-])CC2C3CCCN4CCCC(CN12)C34 (stereo not shown) [Compound 7a, 13-nitromethyl matrine]	–	35.8 ± 0.09
O=C(OC1CC2C3CCCN4CCCC(CN2C(=O)C1O)C34)c1ccccc1 (stereo not shown) [Compound 9h, 14-hydroxyl-13-benzoyloxy matrine]	–	34.5 ± 0.10
O=C(O)CCCC1C2CCCN3CCCC(CN1C(=O)c1ccccc1)C23 (stereo not shown) [DM-107, N-benzoyl matrinic acid]	1.04	–
O=C1C=CCC2C3CCCN4CCCC(CN12)C34 (stereo not shown) [Compound 3, reference compound]	–	21.6 ± 0.13
O=C(OC1CC(=O)N2C[C@@H]3CCCN4CCC[C@@H]([C@H]34)[C@H]2C1)c1ccccc1 (stereo partly shown) [Compound 6d, 13-benzoyloxy matrine]	–	51.0 ± 0.11
O=C1CCC[C@@H]2[C@H]3CCC[N+]4([O-])CCC[C@@H](CN12)[C@@H]34 (stereo partly shown) [Compound 1, reference compound]	–	55.0 ± 0.10
COc1cccc(CN2CC3CCCN4CCCC(C2CCCC(=O)O)C34)c1 (stereo not shown) [DM-142, N-(3-methoxy)benzyl matrinic acid]	1.07	–
